Test [1] is described as follows: blockers of dynein-driven microtubule transport – imaging, high-content imaging, dose response (AID 463136).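 Further: mouse mammary adenocarcinoma 3617.4 cells expressing GFP-tagged rat glucocorticoid receptor.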 To be noted: HCS imaging, dynein-mediated cargo transport inhibition; inhibition at max concentration; at 50 µM; stronger effect = higher value.
Test [2] has as its system HCS imaging, dynein-mediated cargo transport inhibition. Described as above.

Inconclusive results are not listed. The source made the active and inactive calls. How the calls were made is not given here. A value given as a limit tells only on which side of the number the result lay.

What is called inhibition is the drop in the measured response relative to a control, in per cent. As a reminder, the IC50 is the concentration that inhibits the measured activity by half.

As to `N#CC1=C(N)OC2=C(CC/C2=C\c2ccccc2)C1c1ccccc1` (stereo not given), in test [1], the inhibition was 75.8%. For the same molecule, the IC50 in test [2] was 11.1 µM.
As to `CC1(C)C[C@H]2C=C(C=O)[C@]3(C=O)C[C@]3(C)[C@H]2C1`, in test [1], the inhibition worked out at 78.6%. Also, the concentration for half-maximal inhibition (IC50) in test [2] is 12.9 µM.
The like results for `CC(=O)Nc1c([N+](=O)[O-])cc(C)c(Cl)c1[N+](=O)[O-]` were, in that order, 88.8% and 11.2 µM.
In the case of `COC/C=C/C1=CC2=CC(=O)C(C)(OC(=O)c3cnc4ccccc4n3)C(=O)C2=CN1Cc1ccc(OC)cc1` (stereo not given), in test [1], the inhibition worked out at 89.5%. For the same molecule, in test [2], the IC50 is 15 µM.
The like results for `COc1ccc(/C=C\c2nc(=O)c3ccccc3o2)cc1` were, in that order, 86.9% and 6.91 µM.
The like results for `Cc1ccc(-n2ncc(Br)c(Br)c2=O)cc1` were, in that order, 70.1% and 13.8 µM.
The like results for `O=C(NC1CCCC1)C(c1ccc(Cl)cc1)N(Cc1ccc(F)cc1)C(=O)CCl` (stereo not given) were, in that order, 75.1% and 34.8 µM.
As for `CCCNC(=O)c1nnsc1S(=O)(=O)c1ccc(Cl)cc1`, the inhibition in test [1] came out at 69.3%. For the same molecule, the IC50 in test [2] was 8.66 µM.
The like results for `CCCCc1cc(O)c(CCCC)c(O)c1` were, in that order, 76.8% and 2.31 µM.
The like results for `C=CCSc1nc2ccccc2n1C(=O)/C=C/c1cc(OC)c(OC)c(OC)c1` were, in that order, 25.5% and > 50 µM (inactive).
The like results for `Cc1cc(C)cc(N=Cc2[nH]c3ccc(Br)c(Cl)c3c2O)c1` were, in that order, 122% and 27.6 µM.
Take `COc1ccc([N+](=O)[O-])c(S(=O)(=O)c2ccc(Cl)cc2)n1`: in test [1], the inhibition is 34.4%. In addition, in test [2], the IC50 is > 50 µM (inactive).
The like results for `N#Cc1ccccc1Cn1cc(/C=C/[N+](=O)[O-])c2ccccc21` were, in that order, 83.6% and 34.6 µM.
For the molecule `Cc1ccc(C2=NOC(=O)/C2=C\C=C\c2ccccc2)cc1`, the inhibition in test [1] is 71%. Besides, in test [2], the IC50 was 36.6 µM.
The like results for `CCSc1nc2ccccc2n1C(=O)/C=C\c1ccc(OC)c(OC)c1` were, in that order, 7.37% and > 50 µM (inactive).
The like results for `COc1ccc(OC)c(N2C(=O)NC(=O)/C(=C\c3ccc([N+](=O)[O-])s3)C2=O)c1` were, in that order, 86.7% and 11.9 µM.
The like results for `Cn1cnc([N+](=O)[O-])c1S(=O)(=O)c1ccc(Cl)cc1` were, in that order, 78.2% and 3.72 µM.
For `COc1ccc(N(C(=O)CCl)C(C(=O)NC2CCCCC2)c2cccnc2)cc1` (stereo not given), the inhibition in test [1] came out at 85.5%. Besides, the IC50 in test [2] was 13.3 µM.
For the molecule `C#CC(=O)N(c1ccc(OC)cc1OC)C(C(=O)NC1CCCC1)c1cccs1` (stereo not given), the inhibition in test [1] amounted to 0.987%. Moreover, in test [2], the IC50 was > 50 µM (inactive).
The like results for `O=c1[nH]sc2cc(F)ccc12` were, in that order, 91.3% and 12 µM.
The like results for `CCN1C/C(=C/c2cccc([N+](=O)[O-])c2)C(=O)/C(=C/c2cccc([N+](=O)[O-])c2)C1` were, in that order, 84.7% and 22.6 µM.
Regarding `COc1ccc(-n2cccc2/C=C/[N+](=O)[O-])cc1`, the inhibition in test [1] came out at 14.4%. For the same molecule, the IC50 in test [2] is > 50 µM (inactive).
The like results for `CC(=O)c1sc2nc(-c3cccs3)cc(C(F)(F)F)c2c1N` were, in that order, 86% and 21.6 µM.
The like results for `COC(=O)c1ccc(-n2c(C)cc(C(=O)CCl)c2C)cc1` were, in that order, 66.8% and 21.9 µM.
The like results for `O=C1CCCCc2sc(Br)c([N+](=O)[O-])c2N1` were, in that order, 66.9% and 7.06 µM.
Consider `O=C(NC1CCCCC1)C(c1cccnc1)N(C(=O)CCl)c1ccc(F)cc1` (stereo not given), for which, in test [1], the inhibition was 82.2%. Further, the half-maximal inhibitory concentration (IC50) in test [2] was 12.7 µM.
The like results for `Cc1cc(C)cc(N2C(=O)NC(=O)/C(=C\C=C\c3ccco3)C2=O)c1` were, in that order, 88% and 32.3 µM.
The like results for `CCCNC(=O)Cn1c(=O)/c(=C\c2ccc(-c3ccc([N+](=O)[O-])cc3)o2)s/c1=C\C(=O)C(C)(C)C` were, in that order, 95.2% and 32.2 µM.
For the molecule `COc1ccc(N2C(=O)CC(Sc3ncn[nH]3)C2=O)c(OC)c1` (stereo not given), the inhibition in test [1] amounted to 5.17%. In test [2], the IC50 was > 50 µM (inactive).
The like results for `COc1ccc(N(C(=O)CCl)C(C(=O)NCCc2ccccc2)c2cccs2)cc1Cl` (stereo not given) were, in that order, 93.6% and 14.8 µM.
As for `CCN(CC)c1ccc(/C=N/c2sc3c(c2C#N)C2CCN3CC2)c(O)c1`, the inhibition in test [1] is 82.6%. Moreover, the IC50 in test [2] is 38 µM.
The like results for `CCSc1nnc(-c2sc3nnc(-c4ccccc4)c(-c4ccccc4)c3c2N)o1` were, in that order, 134% and 31.3 µM.
The like results for `N#C/C(=C/c1ccc(N2CCCCC2)o1)C(=O)Nc1ccc2ccccc2c1` were, in that order, 98.5% and 27.4 µM.
The like results for `O=C1C=CC(O)(c2cc(=O)c3c(O)cc(O)cc3o2)C=C1` were, in that order, 86.7% and 5.9 µM.
Take `CNC(=O)c1nnsc1S(=O)c1ccc(Cl)cc1` (stereo not given): the inhibition in test [1] is 74.6%. In addition, the IC50 in test [2] is 7.18 µM.
